Read-outs that look alike come from different tables or passages of the source.
Key:
COX-2 = molecular target: T1, COX-2 (Rattus norvegicus, UniProt P35355); assay: Ex vivo cerebral biodistribution and blocking studies in quinolinic acid lesioned rats; parameters: species or system Wistar rats
T1 construct: from tissue; host or cells: brain regions of QA-lesioned Wistar rats (in vivo injection, ex vivo counting)
T1 sequence (P35355 18-604): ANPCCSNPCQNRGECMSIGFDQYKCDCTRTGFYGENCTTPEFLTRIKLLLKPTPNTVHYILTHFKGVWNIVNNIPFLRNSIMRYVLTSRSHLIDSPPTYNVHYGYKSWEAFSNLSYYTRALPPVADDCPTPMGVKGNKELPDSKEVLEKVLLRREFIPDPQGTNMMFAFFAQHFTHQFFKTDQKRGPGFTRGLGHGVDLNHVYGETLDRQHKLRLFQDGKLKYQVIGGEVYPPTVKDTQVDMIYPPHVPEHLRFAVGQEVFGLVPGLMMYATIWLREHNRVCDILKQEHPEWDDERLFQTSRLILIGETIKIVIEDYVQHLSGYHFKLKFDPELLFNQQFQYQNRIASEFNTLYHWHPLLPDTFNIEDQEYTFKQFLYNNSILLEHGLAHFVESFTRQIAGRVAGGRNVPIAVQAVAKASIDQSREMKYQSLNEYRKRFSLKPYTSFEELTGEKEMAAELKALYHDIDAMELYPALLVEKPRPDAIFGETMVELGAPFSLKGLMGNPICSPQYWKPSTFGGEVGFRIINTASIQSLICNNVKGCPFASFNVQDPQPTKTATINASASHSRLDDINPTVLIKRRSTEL
Description: This model consists of a unilateral intrastriatal injection of quinolinic acid to induce excitotoxicity mediated via NMDA receptor activation. This animal model is well known in the literature to produce an inflammatory reaction induced by COX-2 activation in lesioned cerebral parenchyma.
The cerebral biodistribution of [^18F]16 in rats lesioned with QA was expressed as percent of injected dose per gram of tissue (%ID/g) and is shown in Figure 3.
Figure 3. Cerebral biodistribution of [^18F]16, 60 min after i.v. injection in rats, 7 days after focal intrastriatal injection of 150 nmol of quinolinic acid. In the “celecoxib” and “cold 16” groups, animals received an i.v. pre-injection (15 min) of the corresponding compound (3 mg/kg). Results are expressed as % injected dose/g tissue ± SEM. Cx: cortex; Stri: striatum; Hip: hippocampus, Cb: cerebellum.
Blocking in vivo experiments, consisting of a pretreatment with either celecoxib or cold 16 (3 mg/kg) 15 min before injection of the radiotracer, are also presented in Figure 3. […] This confirmed that the low in vivo accumulation observed consisted of nonspecific binding.
Animals. All procedures were conducted in accordance with the requirements of the European Community Council for the care of laboratory animals 2010/63/EU, and approved by the regional ethical committee (Authorization N°2015022011523044). Experiments were carried out on adult Wistar rats (Centre d’Elevage René Janvier, Le Genest-St-Isle, France) weighing 276 ± 19 g at the beginning of the experiments. Animals were housed in groups of two per cage in a temperature and humidity controlled environment (temperature 21 °C ± 1 °C; hygrometry 55% ± 5%), under a 12 h light/dark cycle with food and water available ad libitum.
Surgery: Surgery was performed under isoflurane (AErrane, Baxter, France) anaesthesia (4% for anaesthesia induction and thereafter 2% for its maintenance, in N2O-O2: 70%-30%). The animal's body temperature (36.8 ± 0.5 °C) was monitored with a homoeothermic probe throughout surgery. A unilateral striatal QA lesion was induced in 18 adult male Wistar rats as previously described^14. This procedure results in a well-delineated reproducible excitotoxic lesion to the striatum and ipsilateral cortex.
Ex vivo cerebral biodistribution studies were performed with [^18F]16 in QA lesioned animals at 7 days post lesion (n=6 per group). Rats were i.v. injected (penis vein) with [^18F]16 (2.5 ± 1 MBq) in 300 μL normal saline). […] Animals were sacrificed by decapitation 60 min post [^18F]16 injection. The whole brain was quickly removed and several brain areas (cerebellum, left and right hippocampus, left and right frontal cortex, and left and right striatum), together with the femur, to detect potential in vivo defluorination of the tracer, were dissected and weighed, and their radioactivity was measured using an automated gamma counter (2480 Gamma counter Wizard, Perkin Elmer). The percentage of injected dose per gram tissue (%ID/g) was calculated by comparison with samples to standard dilutions of the initial injected solution.
Statistical analysis: Results were expressed as mean ± standard error of the mean (SEM). Groups of rats (control vs unlabeled compound 16 preinjection, or control vs celecoxib preinjection) were compared using the Mann–Whitney test. Comparisons of binding between ipsi- and contralateral brain structures were performed using the Wilcoxon one-tailed test. The level of significance was p<0.05 (XLStat software®).

human recombinant COX-2 = molecular target: T2, human recombinant COX-2 (Homo sapiens, UniProt P35354); assay: COX Inhibitor Screening Kit (Cayman), fluorescence-based, COX-2 inhibition; assay type: biochemical; conditions: for COX-2 activity in words: SAR discussion; for fold decrease in COX-2 activity versus analog: 41 and 42 versus 14, 17 versus 16
T2 construct: purchased Cayman Chemical 700100, No. 760111
T2 sequence (P35354 18-604): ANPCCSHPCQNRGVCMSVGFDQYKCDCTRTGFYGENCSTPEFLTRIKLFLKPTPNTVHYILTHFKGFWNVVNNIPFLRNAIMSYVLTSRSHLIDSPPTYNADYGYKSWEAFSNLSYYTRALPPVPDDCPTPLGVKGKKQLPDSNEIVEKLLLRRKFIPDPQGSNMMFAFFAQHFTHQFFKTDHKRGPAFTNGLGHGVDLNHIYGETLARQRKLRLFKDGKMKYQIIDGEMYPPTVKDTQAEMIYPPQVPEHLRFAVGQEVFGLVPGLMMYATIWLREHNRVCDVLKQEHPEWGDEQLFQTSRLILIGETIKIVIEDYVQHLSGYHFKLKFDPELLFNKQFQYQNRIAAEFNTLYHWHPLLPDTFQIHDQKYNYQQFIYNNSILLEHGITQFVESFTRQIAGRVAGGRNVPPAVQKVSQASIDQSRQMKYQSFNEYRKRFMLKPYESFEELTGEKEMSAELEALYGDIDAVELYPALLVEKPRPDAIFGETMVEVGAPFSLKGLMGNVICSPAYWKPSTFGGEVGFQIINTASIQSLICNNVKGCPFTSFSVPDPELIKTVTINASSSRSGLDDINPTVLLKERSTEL

[1] = means of triplicates, except DuP-697 (n = 27) and Celecoxib (n = 5)

IC50 (human recombinant COX-2; [1]) | melting point | SMILES | other results
– | – | NS(=O)(=O)c1ccc(-n2nc3ccccc3c2-c2ccc([18F])cc2)cc1 [[^18F]16, 4-[3-(4-[^18F]Fluorophenyl)indazol-2-yl]benzenesulfonamide] | defluorination in vivo (COX-2; from femur uptake, rats): negligible defluorination; decrease in accumulation after blocking pretreatment (COX-2; pretreatment with celecoxib or cold 16 (3 mg/kg i.v.) 15 min before radiotracer): In none of these experiments was a decrease in [^18F]16 accumulation observed; bone uptake in the femur (COX-2; rats, 60 min after i.v. injection): 0.154 ± 0.032 %ID/g tissue; accumulation in activated brain areas compared to contralateral striatum and cortex (COX-2; rats, 7 days after intrastriatal QA, 60 min after i.v. injection): no statistically significant difference; passage through the blood-brain-barrier (BBB) (COX-2; rats, preliminary results): low passage
4.42 ± 0.6 µM | – | CS(=O)(=O)c1ccc(-n2nc3cnccc3c2-c2ccc(F)cc2)cc1 [compound 40, 3-(4-Fluorophenyl)-2-(4-methylsulfonylphenyl)pyrazolo[3,4-c]pyridine] | –
1.03 ± 0.2 µM | 149 to 151 °C | Cc1ccc(-c2c3ccccc3nn2-c2ccc(S(C)(=O)=O)cc2)cc1F [compound 18, 3-(3-Fluoro-4-methyl-phenyl)-2-(4-methylsulfonylphenyl)indazole] | –
> 25 µM | 215 to 217 °C | COc1cncc(-c2c3ccccc3nn2-c2ccc(S(C)(=O)=O)cc2)c1 [compound 25, 3-(5-Methoxy-3-pyridyl)-2-(4-methylsulfonylphenyl)indazole] | –
> 25 µM | 138 to 140 °C | CCOc1ccc(-c2c3ccccc3nn2-c2ccc(S(C)(=O)=O)cc2)cc1F [compound 19, 3-(4-Ethoxy-3-fluoro-phenyl)-2-(4-methylsulfonylphenyl)indazole] | –
4.46 ± 0.4 µM | 147 to 149 °C | CCOc1ccc(-c2c3ccccc3nn2-c2ccc(S(C)(=O)=O)cc2)cn1 [compound 26, 3-(6-Ethoxy-3-pyridyl)-2-(4-methylsulfonylphenyl)indazole] | COX-2 activity in words (human recombinant COX-2): moderate activity
1.46 ± 0.5 µM | 173 to 175 °C | CS(=O)(=O)c1ccc(-n2nc3ccccc3c2-c2ccc(F)cc2)cc1 [compound 14, 3-(4-Fluorophenyl)-2-(4-methylsulfonylphenyl)indazole] | IC50 (human recombinant COX-2): ~1 µM
2.98 ± 0.4 µM | 146 to 148 °C | COc1ccc(-c2c3ccccc3nn2-c2ccc(S(C)(=O)=O)cc2)cn1 [compound 24, 3-(6-Methoxy-3-pyridyl)-2-(4-methylsulfonylphenyl)indazole] | COX-2 activity in words (human recombinant COX-2): moderate activity
> 25 µM | 217 to 219 °C | CCOc1ncc(-c2c3ccccc3nn2-c2ccc(S(C)(=O)=O)cc2)cn1 [compound 27, 3-(2-Ethoxypyrimidin-5-yl)-2-(4-methylsulfonylphenyl)indazole] | COX-2 activity in words (human recombinant COX-2): totally inactive
– | 196 to 198 °C | CCOc1ccc(-c2c3ccccc3nn2-c2ccc(S(C)(=O)=O)cc2)cc1C(F)(F)F [compound 20, 3-[4-Ethoxy-3-(trifluoromethyl)phenyl]-2-(4-methylsulfonylphenyl)indazole] | –
> 25 µM | 219 to 221 °C | CS(=O)(=O)c1ccc(-n2nc3cccnc3c2-c2ccc(F)cc2)cc1 [compound 39, 3-(4-Fluorophenyl)-2-(4-methylsulfonylphenyl)pyrazolo[4,3-b]pyridine] | –
4.75 ± 0.6 µM | – | CS(=O)(=O)c1ccc(-n2nc3ncccc3c2-c2ccc(F)cc2)cc1 [compound 41, 3-(4-Fluorophenyl)-2-(4-methylsulfonylphenyl)pyrazolo[3,4-b]pyridine] | fold decrease in COX-2 activity versus analog (human recombinant COX-2): 4 fold
– | 221 to 223 °C | NS(=O)(=O)c1ccc(-n2nc3ccccc3c2-c2ccc([N+](=O)[O-])cc2)cc1 [compound 42, 4-[3-(4-Nitrophenyl)indazol-2-yl]benzenesulfonamide] | fold decrease in COX-2 activity versus analog (human recombinant COX-2): 4 fold
4.2 ± 0.4 µM | > 250 °C | NS(=O)(=O)c1ccc(-n2nc3ccccc3c2-c2cccc(F)c2)cc1 [compound 17, 4-[3-(3-Fluorophenyl)indazol-2-yl]benzenesulfonamide] | fold decrease in COX-2 activity versus analog (human recombinant COX-2): 10 fold
> 25 µM | 84 to 86 °C | CS(=O)(=O)c1ccc(-n2nc3ccccc3c2-c2ccc(F)nc2F)cc1 [compound 23, 3-(2,6-Difluoro-3-pyridyl)-2-(4-methylsulfonylphenyl)indazole] | –
2.3 ± 0.5 µM | 198 to 200 °C | CS(=O)(=O)c1ccc(-c2c3ccccc3nn2-c2ccc(F)cc2)cc1 [compound 15, 2-(4-Fluorophenyl)-3-(4-methylsulfonylphenyl)indazole] | IC50 (human recombinant COX-2): ≤ 2 µM
> 25 µM | 216 to 218 °C | CS(=O)(=O)c1ccc(-n2nc3ccccc3c2-c2ccc(F)nc2)cc1 [compound 22, 3-(6-Fluoro-3-pyridyl)-2-(4-methylsulfonylphenyl)indazole] | –
1.1 ± 0.3 µM | 197 to 199 °C | CS(=O)(=O)c1ccc(-n2nc3ccccc3c2-c2ccc(Cl)c(C(F)(F)F)c2)cc1 [compound 21, 3-[4-Chloro-3-(trifluoromethyl)phenyl]-2-(4-methylsulfonylphenyl)indazole] | –
